# Like-named read-outs stand apart in the source and are kept apart here.
# Key:
# [1] = UV-Vis spectrum of HPTS as a function of pH, pH response range; format: physicochemical; conditions: RGB detectors with maximum sensitivity at 460 nm/520 nm/630 nm
# Description: An example of modification of 8-hydroxypyrene-1,3,6-trisulfonic acid as its sodium salt is shown below. The 8-hydroxypyrene-1,3,6-trisulfonic acid can also be modified as a salt of a cation other than sodium, such as potassium or ammonium. This compound is suitable as a pH sensitive probe for pH range of 7.0-8.0 for red, green and blue combination photodiode (RGB) detectors with maximum sensitivity at 460 nm/520 nm/630 nm.
# The UV-Vis spectrum of HPTS as a function of pH is shown in FIG. 7, while the pH response range for this dye at 454 nm is shown in FIG. 8.
# [2] = SPD^−1/SPD^−2 transition, cited from earlier work
# [3] = SPD derivative UV-Vis spectral and chemical properties (Table 1); format: physicochemical; conditions: for λ1, nm (SPD^−1 form): pH sensitive wavelength of SPD^−1
# Description: The HA and A^− concentrations are related by the Henderson-Hasselbalch equation: pH=pKa+log[A^−]/[H—A] where Ka is the acid dissociation constant, pKa is −log Ka, and [A^−] and [HA] are the concentrations of dissociated and undissociated dye acid form, respectively.
# Such compounds are commonly used as pH sensitive indicators for determination of pH of aqueous solutions. […] The structure of suitable SPDs and their conjugate bases are shown generically below, and their spectral and chemical properties are reported in Table 1.
# Unmodified SPDs have been used for the preparation of pH sensitive indicators adsorbed on the surface of suitable polymeric materials, such as cellulose based materials. […] In general, substitution with electron acceptor substituents (e.g., Cl, Br in the C2/C5 positions) results in a pKa shift to a lower pH range relative to PR, and substitution with electron donor substituents (e.g., C1-C3 alkyl in the C2, C4 and C5 positions) results in a pKa shift to a higher pH range. […] Examples of such SPDs include bromocresol purple and bromothymol blue.
# Measurement of absorbance at specific wavelengths allows for the determination of the concentrations of the acidic and basic forms of the dye. These wavelengths are typically selected based upon the absorbance maxima for each specific dye, although other wavelengths can be employed albeit with diminished sensitivity.
# [4] = pH sensitive wavelength of SPD^−2
SMILES,pKa* SPD^−1/SPD^−2 [2],"λ1, nm (SPD^−1 form) [3] [nm]","λ2, nm (SPD^−2 form) [3, 4] [nm]",other results
"O=S(=O)(O)c1cc(O)c2ccc3c(S(=O)(=O)O)cc(S(=O)(=O)O)c4ccc1c2c34 [8-hydroxypyrene-1,3,6-trisulfonic acid]",–,–,–,pH range for which suitable as pH sensitive probe [1]: 7.0-8.0
"Cc1c(C2(c3cc(Br)c(O)c(Br)c3C)OS(=O)(=O)c3ccccc32)cc(Br)c(O)c1Br [Bromocresol Green (BrCrG), Bromocresol Green]",4.7,432,~614,–
"Cc1cc(C2(c3cc(C)c(O)c(Br)c3)OS(=O)(=O)c3ccccc32)cc(Br)c1O [Bromocresol Purple (BrCrP), Bromocresol Purple]",6.3,432,589,–
O=S1(=O)OC(c2cc(Br)c(O)c(Br)c2)(c2cc(Br)c(O)c(Br)c2)c2ccccc21 [Bromophenol Blue],4.1,436,591,–
Cc1c(C2(c3cc(C(C)C)c(O)c(Br)c3C)OS(=O)(=O)c3ccccc32)cc(C(C)C)c(O)c1Br [Bromothymol Blue],7.1,427,602,–
"O=S1(=O)OC(c2ccc(O)c(Cl)c2)(c2ccc(O)c(Cl)c2)c2ccccc21 [Chlorophenol Red (ClPR), Chlorophenol Red]",6.7,436,575,–
"Cc1cc(C2(c3ccc(O)c(C)c3)OS(=O)(=O)c3ccccc32)ccc1O [Cresol Red (CR), Cresol Red]",–,430,–,–
Cc1c(C2(c3cc(C(C)C)c(O)c(CN(CC(=O)[O-])CC(=O)[O-])c3C)OS(=O)(=O)c3ccccc32)cc(C(C)C)c(O)c1CN(CC(=O)[O-])CC(=O)[O-].[Na+].[Na+].[Na+].[Na+] [Methylthymol Blue],6.0-13.0,442,614,–
"O=S1(=O)OC(c2ccc(O)cc2)(c2ccc(O)cc2)c2ccccc21 [Phenol Red (PR), Phenol Red]",7.4,431,557,"pKa* SPD^−1/SPD^−2 ([2]; listed as Phenol red (PR)): approximately 7.4; λ2, nm (SPD^−2 form) ([3]; pH sensitive wavelength of SPD^−2, listed as PR): approximately 557 nm; pKa (Table 3, PR derivatives): 7.4; λ1, nm (Table 3, PR derivatives): 431 nm; λ2, nm (Table 3, PR derivatives): 557 nm; λ1^pH 6/pH 9 Abs ratio (calculated as OD 430 nm pH 6.0/OD 430 nm pH 9.0): 5.1"
Cc1cc(O)c(C(C)C)cc1C1(c2cc(C(C)C)c(O)cc2C)OS(=O)(=O)c2ccccc21 [Thymol Blue],8.9,432,595,–
Cc1cc(C2(c3cc(C)c(O)cc3C)OS(=O)(=O)c3ccccc32)c(C)cc1O [Xylenol Blue],8.5,436,594,–
Cc1cc(C2(c3cc(C)c(O)c(CN(CC(=O)O)CC(=O)O)c3)OS(=O)(=O)c3ccccc32)cc(CN(CC(=O)O)CC(=O)O)c1O [Xylenol Orange],6.0-11.7,436,583,–
"Cc1cc(O)ccc1C1(c2ccc(O)cc2C)OS(=O)(=O)c2ccccc21 [m-Cresol Purple (mCrP), m-Cresol Purple]",8.3,432,578,–

# Source: patent publication US12203909B2, “Compositions for conjugating a sulfonephthalein dye to a substrate” (priority 2018, dated 2025)
